Series [1] deals with OCI-LY19. Kind of series: Apoptosis assay (Annexin V/PI), cell survival. In kind it is cell-based. The following applies: Homo sapiens; OCI-LY19 (DLBCL), 48 hours. As for the experimental part: (§1) Cells were seeded at 5×10^5 cells/well in 24 well plates, and incubated with 9-ING-41 at indicated concentrations for 48 hours. The cells were then stained with FITC conjugated Annexin V (Life Technologies) and Propidium Iodide followed by analysis on a BD FACS Calibur flow cytometer.
(§2) The IC50S of 9-ING-41 on cell survival and proliferation was calculated using an on-line IC50 calculation tool (https://www.aatbio.com/tools/ic50-calculator/).
(§3) Given that both GSK3α and GSK3β are overexpressed in lymphoma cells, and that both enzymes are implicated in multiple signaling pathways critical for cell functions, whether GSK3α and GSK3β are functionally supporting the survival and proliferation of lymphoma cells was examined. […] The inhibitory concentrations of 9-ING-41 at half of the maximal effect (IC50) on cell survival of various lymphoma cell lines was calculated (Table 1).

The test system of series [2] is OCI-LY1. Kind of series: Apoptosis assay (Annexin V/PI), cell survival. The following applies: Homo sapiens; OCI-LY1 (DLBCL), 48 hours. The series is classed as cell-based. As for the experimental part: as §1, §2, §3
In series [3] the test system is Mino. Description: Apoptosis assay (Annexin V/PI), cell survival. In kind it is cell-based. The following applies: Homo sapiens; Mino (MCL), 48 hours. As for the experimental part:
as §1, §2, §3

In series [4] the test system is SeAx. Kind of series: Apoptosis assay (Annexin V/PI), cell survival. The conditions noted are these: Homo sapiens; SeAx (TCL), 48 hours. The series is classed as cell-based. As for the experimental part:
as §1, §2, §3

In series [5] the test system is OCI-Ly3. Kind of series: Apoptosis assay (Annexin V/PI), cell survival. In kind it is cell-based. The following applies: Homo sapiens; OCI-Ly3 (DLBCL), 48 hours. As for the experimental part: as §1, §2, §3
In series [6] the test system is MyLa. Kind of series: Apoptosis assay (Annexin V/PI), cell survival. The series is classed as cell-based. The conditions noted are these: Homo sapiens; MyLa (TCL), 48 hours. As for the experimental part:
as §1, §2, §3

The subject of series [7] is Jeko. Description: Apoptosis assay (Annexin V/PI), cell survival. The series is classed as cell-based. The following applies: Homo sapiens; Jeko (MCL), 48 hours. As for the experimental part:
as §1, §2, §3

The subject of series [8] is Granta-519. Kind of series: Apoptosis assay (Annexin V/PI), cell survival. The series is classed as cell-based. The conditions noted are these: Homo sapiens; Granta-519 (MCL), 48 hours. As for the experimental part: as §1, §2, §3
In series [9] the test system is purified normal unstimulated T lymphocytes or peripheral blood mononuclear cells. Description: Apoptosis assay in normal cells. In kind it is cell-based, human. The following applies: even at 10.0 μM 9-ING-41. As for the experimental part:
Unstimulated peripheral blood B- and T-lymphocytes isolated from a healthy donor were used as normal control. Pro-apoptotic effect of the GSK3 inhibitor 9-ING-41 in various MCL and TCL lines (A) and DLBCL lines (B). (C) Cell proliferation profile of various lymphoma cell lines upon treatment with 9-ING-41. Results (A-C) are from 3 independent experiments.
as §1, §3

The test system of series [10] is phospho-c-MYC in KPUM-UH1 cells. Kind of series: Western blot analysis of c-MYC. In kind it is cell-based. The conditions noted are these: KPUM-UH1 double-hit lymphoma cell line. As for the experimental part: c-MYC levels were analyzed in KPUM-UH1 cells via western blot for 9-ING-41 alone and the combination of 9ING-41 with either Venetoclax or BAY-1143572. Around 10 million cells were spun down at 200 rcf for 5 minutes and rinsed once with PBS before lysing in 50 μl of Millipore Milliplex MAP lysis buffer supplemented with protease and phosphatase inhibitors (Roche). Protein denatured in 4× sample buffer supplemented with β-mercaptoethanol (Bio-Rad) was loaded per well. Bio-Rad stain-free Criterion 4-20% precast gels were used. After running the gel at 140 volts for 90 minutes, Bio-Rad gel imager was used to activate the stain-free technology to visualize the total protein levels loaded in the gel. A nitrocellulose turbo-transfer pack and system (Bio-Rad) was then used to transfer the proteins to the membrane, and 5% w/v dry milk in Tris-buffered saline-0.1% Tween 20 (TBS-T) was used to block the membranes for 1 hour. Membranes were then incubated with the primary antibody diluted in 5% BSA in TBS-T overnight. Membranes were then rinsed in TBS-T 3 times (one 15 minute wash and two 5 minutes washes) and then incubated with the corresponding secondary antibody-conjugated with HRP for 1 hour and rinsed with TBS-T as before. […] Quantification of the band intensities were performed using Image J software (NIH).
Background: Immunoblotting shows a protein as a band on a membrane.

A word on the IC50: it is the point on the concentration scale where inhibition reaches its midpoint. The low end stands for greater potency in that assay, the high end for weaker potency in that assay.

Take `Cn1cc(C2=C(c3coc4ccc(F)cc34)C(=O)NC2=O)c2cc3c(cc21)OCO3` [9-ING-41, 3-(5-Fluorobenzofuran-3-yl)-4-(5-methyl-5H-[1,3]dioxolo[4,5-f]indol-7-yl)pyrrole-2,5-dione]: the concentration for half-maximal inhibition (IC50) in series [1] came out at 2.21 µM; in series [2] it was 3.05 µM; in series [3], 0.55 µM; in series [4] it was 1.6 µM; in series [5] it was 3.76 µM; in series [6], 0.69 µM. Moreover, the half-inhibitory concentration (IC50) is 1.28 µM in series [7] and 0.77 µM in series [8]. The “Apoptosis in normal cells” value in [9] is listed as “no significant apoptosis”. Further, the “Effect on phospho-c-MYC” value in [10] is listed as “phospho-c-MYC is modified”.

For the origin of these results see patent publication US11980607B2, “Methods of treating malignant lymphoproliferative disorders” (Actuate Therapeutics Inc., priority 2018, dated 2024).
